As usually defined, the Ki is the dissociation constant of the complex between target and ligand, obtained from inhibition or displacement.

The values below come from patent US8853242B2, “Nitrogenous-ring acylguanidine derivative” (Astellas Pharma Inc., priority 2009, dated 2014).

This test addresses human 5-HT5A receptor (Homo sapiens (Human), UniProt P47898). Nature of the test: Test on a human 5-HT5A receptor binding inhibition ([3H]5-CT). To be noted: membrane from HEK293 cells expressing human 5-HT5A receptor, Ki calculated from IC50. On the procedure:
The ORF (open reading frame; protein coding region) of a human 5-HT5A receptor (Genbank AF498985) was cloned from a human hippocampus cDNA library, and then inserted into a pCR2.1 vector (Invitrogen), and Escherichia coli containing the plasmid was cultured in a large amount. Next, the full-length cDNA sequence of the human 5-HT5A receptor was analyzed, and recombined into a pCDNA3.1 vector (Invitrogen) as an expression vector and cultured in a large amount. HEK293 established cells (ATCC) derived from the human fetal kidney were seeded, the expression plasmid (1 μg) obtained above were added thereto with LIPOFECTAMINE 2000 (Invitrogen; 2 μl), the gene was transfected into HEK293 cells, and the expression cells were screened with a drug-resistant marker, Geneticin (G418 sulfate 500 μg/ml; Kanto Chemical Co., Inc.). Thus prepared recombinant cells which expressed the gene were cultured in a medium containing D-MEM (Dulbecco's modified eagle medium, Sigma), 10% FCS (Fetal calf serum: fetal bovine serum), 1% Pc./Sm (Penicillin/Streptomycin, Invitrogen), and 500 μg/ml G418 for 3 days. These experimental operations followed a manual for gene operation experiment and an instruction appended in a reagent, and the like, such as a known method (Sambrook, J. et al, Molecular Cloning-A Laboratory Manual”, Cold Spring Harabor laboratory, NY, 1989).
HEK293 cells for forced expressions of a human 5-HT5A receptor were cultured in a F500 plate, and scraped with a scraper. After centrifugation, the precipitate was collected, and an incubation buffer (50 mM Tris (HCl) (pH 7.4), 10 mM MgSO4, and 0.5 mM EDTA (ethylenediamine tetraacetic acid)) was added thereto. After homogenization, it was further centrifuged, and the incubation buffer was added to the precipitate, followed by thoroughly suspending. The operation was repeated, and protein concentration was measured, thereby completing preparation of the membrane.
A solution of the compound to be tested and 100 μM 5-CT (5-carboxamidetriptamine) in DMSO was added to a 96-well plate at 2 μl/well, suspended in an incubation buffer, and a membrane from HEK293 cells for forced expressions of a human 5-HT5A receptor prepared at 200 μg/ml was added at 100 μl/well. After incubation at room temperature for 15 minutes, a [^3H]5-CT solution (2 nM [^3H]5-CT, incubation buffer) was added thereto at 100 μl/well.
Separately, 100 μl of the solution was distributed into a liquid scintillation vial, and 2 ml of Aquasol II (registered trademark) was added thereto, followed by stirring. Then, radioactivity was measured by a liquid scintillation counter. It was incubated at 37° C. for 60 minutes. The reaction mixture was sucked into 96-well GF/C filter plate that had been pre-treated with 0.2% polyethyleneimine, and washed six times with an ice-cooled, 50 mM Tris (pH 7.5) buffer. The GF/C filter plate was dried.
Microscint TMPS (registered trademark) was added thereto at 40 μl/well. Radioactivity remaining on the GF/C filter plate was measured by a top counter.
The [^3H]5-CT binding inhibiting activity by the compound to be tested in each experiment was determined as an IC50 value with a radioactivity upon addition of DMSO alone being 0% inhibition, and a radioactivity upon addition of 1 μM 5-CT being 100% inhibition. Separately, Ki values were calculated from the Kd value of the [^3H]5-CT determined from Scatchard analysis, by the following equation. Ki=IC50(1+Concentraion of ligand added/Kd(4.95 nM))

Sequence of human 5-HT5A receptor (P47898 whole entry): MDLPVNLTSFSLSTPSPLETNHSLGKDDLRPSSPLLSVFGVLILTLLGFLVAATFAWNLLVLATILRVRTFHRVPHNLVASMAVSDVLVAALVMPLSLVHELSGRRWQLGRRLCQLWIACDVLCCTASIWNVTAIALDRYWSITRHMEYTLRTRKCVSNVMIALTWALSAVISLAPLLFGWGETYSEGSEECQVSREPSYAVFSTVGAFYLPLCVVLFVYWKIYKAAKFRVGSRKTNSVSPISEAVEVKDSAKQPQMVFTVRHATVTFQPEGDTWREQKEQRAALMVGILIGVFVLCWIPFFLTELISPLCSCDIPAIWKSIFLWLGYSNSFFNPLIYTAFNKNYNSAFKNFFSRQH

For the compound `Cc1cc(-c2ccc(F)cc2F)c2cc(C(=O)N=C(N)N)cc(C)c2n1` [Example 85], the Ki ([3H]5-CT binding) is 1 to 10 nM.
On the same count and under the same terms, under `NC(N)=NC(=O)c1ccc2ncc(C(F)(F)F)c(-c3ccc(F)cc3F)c2c1` [Example 86] stands 10 to 100 nM; under `CCc1cc(-c2c(F)cc(F)cc2F)c2cc(C(=O)N=C(N)N)ccc2n1` [Example 87], 10 to 100 nM.
Same read-out and setting: under `Cc1nc2ccc(C(=O)N=C(N)N)cc2c(-c2ccc(F)cc2F)c1Cl` [Example 88] stands 1 to 10 nM; under `Cc1nc2ccc(C(=O)N=C(N)N)cc2c(-c2ccccc2F)c1Cl` [Example 89], 1 to 10 nM.
As for `NC(N)=NC(=O)c1ccc2nc(C(F)(F)F)cc(-c3c(F)cc(F)cc3F)c2c1` [Example 90], the Ki ([3H]5-CT binding) is 10 to 100 nM.
The same measure, in the same setting: under `Cc1cc(-c2ccc(F)cc2Cl)c2cc(C(=O)N=C(N)N)cc(C)c2n1` [Example 91] stands 1 to 10 nM; under `NC(N)=NC(=O)c1ccc2nc(C(F)(F)F)cc(-c3ccc(F)cc3F)c2c1` [Example 92], 100 to 300 nM; under `COc1ccc(-c2c(Cl)cnc3ccc(C(=O)N=C(N)N)cc23)cc1` [Example 93], 1 to 10 nM.
The same measure, in the same setting: under `Cc1cc(C(=O)N=C(N)N)cc2c(-c3ccc(F)cc3F)c(Cl)cnc12` [Example 99] stands 1 to 10 nM; under `NC(N)=NC(=O)c1ccc2c(Cl)cnc(-c3cccc(Cl)c3Cl)c2c1` [Example 100], 10 to 100 nM; under `Cc1cc(C(=O)N=C(N)N)cc2c(-c3ccccc3F)c(Cl)cnc12` [Example 101], 1 to 10 nM.
On the same count and under the same terms, under `NC(N)=NC(=O)c1ccc2ncc(Cl)c(C3=CCCCC3)c2c1` [Example 102] stands 1 to 10 nM.
Consider `Cc1cc(C(=O)N=C(N)N)cc2c(C3CC3)c(Cl)cnc12` [Example 103], for which, for the setting “[3H]5-CT binding”, the Ki was 10 to 100 nM.
`NC(N)=NC(=O)c1ccc2ncc(Cl)c(-c3ccncc3F)c2c1` [Example 104]: for the setting “[3H]5-CT binding”, the Ki is 1 to 10 nM.
Regarding `Cc1nc2ccc(C(=O)N=C(N)N)cc2c(-c2ccccc2F)c1C` [Example 105], the Ki ([3H]5-CT binding) was 10 to 100 nM.
Same read-out and setting: under `COc1ncccc1-c1c(Cl)cnc2ccc(C(=O)N=C(N)N)cc12` [Example 106] stands 10 to 100 nM; under `NC(N)=NC(=O)c1ccc2ncc(Cl)c(C3=CCCC3)c2c1` [Example 107], 1 to 10 nM.
Turning to `Cc1nc2ccc(C(=O)N=C(N)N)cc2c(-c2c(F)cc(F)cc2F)c1C` [Example 114], the Ki ([3H]5-CT binding inhibition) was 3.7 nM.
For `Cc1nc2ccc(C(=O)N=C(N)N)cc2c(-c2c(F)cccc2F)c1C` [Example 117], the Ki ([3H]5-CT binding) was 1 to 10 nM.
Same read-out and setting: under `Cc1nc2ccc(C(=O)N=C(N)N)cc2c(-c2ccc(F)cc2)c1C` [Example 118] stands 10 to 100 nM; under `COc1cc(C#N)ccc1-c1c(C)c(C)nc2ccc(C(=O)N=C(N)N)cc12` [Example 120], 10 to 100 nM; under `Cc1nc2ccc(C(=O)N=C(N)N)cc2c(-c2c(F)cccc2Cl)c1C` [Example 121], 1 to 10 nM.
On to `Cc1nc2ccc(C(=O)N=C(N)N)cc2c(-c2ccccc2Cl)c1C` [Example 122], for which the Ki ([3H]5-CT binding) is 10 to 100 nM.
Consider `Cc1nc2ccc(C(=O)N=C(N)N)cc2c(-c2c(F)cccc2F)c1F` [Example 123], for which the Ki ([3H]5-CT binding) is 1 to 10 nM.
Consider `Cc1cc(-c2c(F)cc(F)cc2Cl)c2cc(C(=O)N=C(N)N)ccc2n1` [Example 124], for which the Ki ([3H]5-CT binding) was 10 to 100 nM.
Take `Cc1nc2ccc(C(=O)N=C(N)N)cc2c(-c2ccccc2F)c1F` [Example 125]: where the note is “[3H]5-CT binding”, the Ki was 10 to 100 nM.
Same read-out and setting: under `Cc1nc2ccc(C(=O)N=C(N)N)cc2c(-c2ccc(F)cc2Cl)c1C` [Example 126] stands 1 to 10 nM; under `Cc1nc2ccc(C(=O)N=C(N)N)cc2c(-c2ccncc2Cl)c1C` [Example 127], 10 to 100 nM.
For `COc1cccc(F)c1-c1c(C)c(C)nc2ccc(C(=O)N=C(N)N)cc12` [Example 129], the Ki ([3H]5-CT binding) was 10 to 100 nM.
Still for that read-out and setting: under `Cc1nc2ccc(C(=O)N=C(N)N)cc2c(-c2ccccc2Cl)c1Cl` [Example 130] stands 1 to 10 nM; under `Cc1nc2ccc(C(=O)N=C(N)N)cc2c(-c2c(F)cncc2F)c1C` [Example 131], 10 to 100 nM.
For the compound `Cc1nc2ccc(C(=O)N=C(N)N)cc2c(-c2ccc(F)cc2Cl)c1Cl` [Example 132], the Ki ([3H]5-CT binding) is 1 to 10 nM.
Turning to `NC(N)=NC(=O)c1ccc2ccnc(-c3ccccc3)c2c1` [Example 133], under “[3H]5-CT binding”, the Ki was 10 to 100 nM.
With `NC(N)=NC(=O)c1ccc2ccnc(-c3c(F)cccc3Cl)c2c1` [Example 134], the Ki ([3H]5-CT binding) is 1 to 10 nM.
Turning to `NC(N)=NC(=O)c1ccc2ccnc(-c3ccc(Cl)cc3Cl)c2c1` [Example 138], the Ki ([3H]5-CT binding) was 1 to 10 nM.
`N#Cc1ccccc1-c1nccc2ccc(C(=O)N=C(N)N)cc12` [Example 139]: the Ki ([3H]5-CT binding) is 100 to 300 nM.
On the same count and under the same terms, under `N#Cc1cc(Cl)ccc1-c1nccc2ccc(C(=O)N=C(N)N)cc12` [Example 140] stands 10 to 100 nM; under `N#Cc1ccc(-c2nccc3ccc(C(=O)N=C(N)N)cc23)c(F)c1` [Example 141], 1 to 10 nM.
The same measure, in the same setting: under `NC(N)=NC(=O)c1ccc2c(Cl)cnc(-c3c(F)cc(F)cc3F)c2c1` [Example 142] stands 1 to 10 nM; under `N#Cc1cnc(-c2c(F)cc(F)cc2F)c2cc(C(=O)N=C(N)N)ccc12` [Example 143], 10 to 100 nM.
The same measure, in the same setting: under `NC(N)=NC(=O)c1ccc2c(F)cnc(-c3c(F)cc(F)cc3F)c2c1` [Example 144] stands 1 to 10 nM.
With `NC(N)=NC(=O)c1ccc2c(F)cnc(-c3c(F)cccc3Cl)c2c1` [Example 147], for the setting “[3H]5-CT binding inhibition”, the Ki was 1.6 nM.
Still for that read-out and setting: under `NC(N)=NC(=O)c1ccc2c(F)cnc(-c3ccc(F)cc3Cl)c2c1` [Example 151] stands 4.1 nM; under `Cc1cnc(-c2c(F)cc(F)cc2F)c2cc(C(=O)N=C(N)N)ccc12` [Example 152], 1.3 nM.
As for `Cc1nc(-c2c(F)cc(F)cc2F)c2cc(C(=O)N=C(N)N)ccc2c1F` [Example 154], the Ki ([3H]5-CT binding) is 1 to 10 nM.
Take `Cc1cc2ccc(C(=O)N=C(N)N)cc2c(-c2c(F)cccc2F)n1` [Example 155]: the Ki ([3H]5-CT binding) was 10 to 100 nM.
On the same count and under the same terms, under `NC(N)=NC(=O)c1ccc2c(C3CC3)cnc(-c3c(F)cccc3F)c2c1` [Example 156] stands 10 to 100 nM.
For `CC(C)c1cnc(-c2c(F)cccc2F)c2cc(C(=O)N=C(N)N)ccc12` [Example 158], for the setting “[3H]5-CT binding”, the Ki is 10 to 100 nM.
`COc1cccc(F)c1-c1ncc(F)c2ccc(C(=O)N=C(N)N)cc12` [Example 159]: the Ki is 7.1 nM ([3H]5-CT binding inhibition) and 1 to 10 nM ([3H]5-CT binding).
For `NC(N)=NC(=O)c1ccc2c(F)cnc(-c3ccccc3Cl)c2c1` [Example 161] the same measures were 3.4 nM and 1 to 10 nM.
With `NC(N)=NC(=O)c1ccc2c(Cl)cnc(-c3c(F)cccc3F)c2c1` [Example 162], the Ki ([3H]5-CT binding inhibition) is 1.2 nM.
Consider `NC(N)=NC(=O)c1ccc2c(F)cnc(-c3ccncc3Cl)c2c1` [Example 163], for which the Ki ([3H]5-CT binding) is 10 to 100 nM.
Consider `NC(N)=NC(=O)c1ccc2c(F)cnc(-c3c(F)cncc3Cl)c2c1` [Example 164], for which the Ki ([3H]5-CT binding inhibition) was 4.7 nM and the Ki ([3H]5-CT binding) was 1 to 10 nM.
In the case of `NC(N)=NC(=O)c1ccc2c(F)cnc(-c3ccncc3F)c2c1` [Example 165], the Ki ([3H]5-CT binding) was 10 to 100 nM.
As for `COc1cccc(F)c1-c1ncc(Cl)c2ccc(C(=O)N=C(N)N)cc12` [Example 166], the Ki ([3H]5-CT binding) is 1 to 10 nM.
In the case of `Cc1cnc(-c2c(F)cccc2F)c2cc(C(=O)N=C(N)N)ccc12` [Example 170], for the setting “[3H]5-CT binding inhibition”, the Ki is 1.9 nM.
The same measure, in the same setting: under `NC(N)=NC(=O)c1ccc2c(F)cnc(-c3ncc(F)cc3Cl)c2c1` [Example 171] stands 6.2 nM.
`CCc1cnc(-c2c(F)cccc2F)c2cc(C(=O)N=C(N)N)ccc12` [Example 172]: the Ki ([3H]5-CT binding) was 1 to 10 nM.
Still for that read-out and setting: under `NC(N)=NC(=O)c1ccc2c(Cl)cnc(-c3ccncc3F)c2c1` [Example 173] stands 10 to 100 nM; under `COc1cc(F)ccc1-c1ncc(Cl)c2ccc(C(=O)N=C(N)N)cc12` [Example 174], 10 to 100 nM.
